In patent US6964949B2, “Pharmaceutical compositions for promoting the growth of gram-positive bacilli and increasing the acidity in the vagina and the use thereof” (Shanghai Jiao Da Onlly Co., Ltd., priority 2000, dated 2005):

Tests used:
[1] = system: L. acidophilus, C. albicans, C. tropicalis; assay: Terconazole in Maltose Broth, Group 1 co-culture: turbidity and Gram-stained smear; type: cell-based; design: key to Turbidity, Group 1: ++: The cultural fluid was heavily turbid; +: The cultural fluid was turbid; +/−: The turbidity of the cultural fluid was not affirmative; key to Microbes (Gram-stained smear), Group 1: Lb: Lactobacilli; Candida; details: 18 hours, 37° C., candle jar
Method: (§1) • 1. Materials: • Maltose Broth: 10.0% maltose, 2.0% yeast extract, K2HPO4 0.5%, MgSO4 0.05%, MnSO40.1%, pH adjusted to 6.2, sterilized. • Anti-fungi drug: Terconazole • Clinically isolated Lactobacillus strains: Lactobacillus acidophilus, Lactobacillus crispatus, and Lactobacillus jensenii. Three lactobacillus suspensions were prepared separately from each of these three lactobacillus strains.
(§2) Clinically isolated Candida strains: Candida albicans and Candida tropicalis. Two Candidal suspensions were prepared separately from each of these two candida strains. • 2.
(§3) • There were six tubes in each group and each tube contained 2 ml Maltose Broth and different concentration of Terconazole, as shown in Table 1. • The turbidity values of three lactobacillus suspensions and two Candidal suspensions were tested by Turbidimeter and adjusted to 0.3. 50 ul of each prepared lactobacillus suspension and Candidal suspension were separately added into tubes according to Table 1. • All of these experimental tubes were put into candle jars as soon as the lactobacillus suspensions and candidal suspensions were added, and then incubated at 37° C. for 18 hours. • After 18 hours' incubation the turbidity of each tube was examined and Gram-stained smear of cultural fluid of corresponding tube was observed under microscopy to check microbes. Results

[2] = system: L. crispatus, C. albicans, C. tropicalis; assay: Terconazole in Maltose Broth, Group 2 co-culture: turbidity and Gram-stained smear; type: cell-based; design: key to Turbidity, Group 2: ++: The cultural fluid was heavily turbid; +: The cultural fluid was turbid; +/−: The turbidity of the cultural fluid was not affirmative; key to Microbes (Gram-stained smear), Group 2: Lb: Lactobacilli; Candida; details: 18 hours, 37° C., candle jar
Method: as §1, §2, §3

[3] = system: L. jensenii, C. albicans, C. tropicalis; assay: Terconazole in Maltose Broth, Group 3 co-culture: turbidity and Gram-stained smear; type: cell-based, Lactobacillus jensenii, Candida albicans, Candida tropicalis; design: key to Turbidity, Group 3: ++: The cultural fluid was heavily turbid; +: The cultural fluid was turbid; +/−: The turbidity of the cultural fluid was not affirmative; key to Microbes (Gram-stained smear), Group 3: Lb: Lactobacilli; Candida; details: 18 hours, 37° C., candle jar
Method: as §1, §2, §3

[4] = system: C. albicans, C. tropicalis; assay: Terconazole in Maltose Broth, Group 4 (Candidal group): turbidity and Gram-stained smear; type: cell-based, Candida albicans, Candida tropicalis; design: key to Turbidity, Group 4: ++: The cultural fluid was heavily turbid; +: The cultural fluid was turbid; +/−: The turbidity of the cultural fluid was not affirmative; details: 18 hours; for Turbidity, Group 4: 37° C., candle jar
Method: as §1, §2, §3

[5] = system: three Lactobacillus strains; assay: Terconazole in Maltose Broth: growth of the three Lactobacillus strains (Groups 1-3); type: cell-based; details: 400 ug/ml of Terconazole, 18 hours
Method: as §1, §2, §3

CC(C)N1CCN(c2ccc(OCC3COC(Cn4cncn4)(c4ccc(Cl)cc4Cl)O3)cc2)CC1 (stereo not shown) [Terconazole]
Microbes (Gram-stained smear), Group 1 ([1]; Terconazole 25 ug/ml): Lb | Turbidity, Group 1 ([1]; Terconazole 25 ug/ml): ++ | Microbes (Gram-stained smear), Group 1 ([1]; Terconazole 50 ug/ml): Lb | Turbidity, Group 1 ([1]; Terconazole 50 ug/ml): ++ | Microbes (Gram-stained smear), Group 1 ([1]; Terconazole 100 ug/ml): Lb | Turbidity, Group 1 ([1]; Terconazole 100 ug/ml): ++ | Microbes (Gram-stained smear), Group 1 ([1]; Terconazole 200 ug/ml): Lb | Turbidity, Group 1 ([1]; Terconazole 200 ug/ml): ++ | Microbes (Gram-stained smear), Group 1 ([1]; Terconazole 400 ug/ml): Lb | Turbidity, Group 1 ([1]; Terconazole 400 ug/ml): ++ | Microbes (Gram-stained smear), Group 2 ([2]; Terconazole 25 ug/ml): Lb | Turbidity, Group 2 ([2]; Terconazole 25 ug/ml): ++ | Microbes (Gram-stained smear), Group 2 ([2]; Terconazole 50 ug/ml): Lb | Turbidity, Group 2 ([2]; Terconazole 50 ug/ml): ++ | Microbes (Gram-stained smear), Group 2 ([2]; Terconazole 100 ug/ml): Lb | Turbidity, Group 2 ([2]; Terconazole 100 ug/ml): ++ | Microbes (Gram-stained smear), Group 2 ([2]; Terconazole 200 ug/ml): Lb | Turbidity, Group 2 ([2]; Terconazole 200 ug/ml): ++ | Microbes (Gram-stained smear), Group 2 ([2]; Terconazole 400 ug/ml): Lb | Turbidity, Group 2 ([2]; Terconazole 400 ug/ml): ++ | Microbes (Gram-stained smear), Group 3 ([3]; Terconazole 25 ug/ml): Lb | Turbidity, Group 3 ([3]; Terconazole 25 ug/ml): ++ | Microbes (Gram-stained smear), Group 3 ([3]; Terconazole 50 ug/ml): Lb | Turbidity, Group 3 ([3]; Terconazole 50 ug/ml): ++ | Microbes (Gram-stained smear), Group 3 ([3]; Terconazole 100 ug/ml): Lb | Turbidity, Group 3 ([3]; Terconazole 100 ug/ml): ++ | Microbes (Gram-stained smear), Group 3 ([3]; Terconazole 200 ug/ml): Lb | Turbidity, Group 3 ([3]; Terconazole 200 ug/ml): ++ | Microbes (Gram-stained smear), Group 3 ([3]; Terconazole 400 ug/ml): Lb | Turbidity, Group 3 ([3]; Terconazole 400 ug/ml): ++ | growth of the two Candidal strains ([4]; 25 ug/ml or greater concentration of Terconazole): inhibited the growth | Turbidity, Group 4 ([4]; Terconazole 25 ug/ml): +/− | Turbidity, Group 4 ([4]; Terconazole 50 ug/ml): +/− | Turbidity, Group 4 ([4]; Terconazole 100 ug/ml): +/− | Turbidity, Group 4 ([4]; Terconazole 200 ug/ml): +/− | Turbidity, Group 4 ([4]; Terconazole 400 ug/ml): +/− | growth of three Lactobacillus strains [5]: didn't inhibit the growth
